Assay results reported in patent US20260028673A1, “PR[…] OF TCF1+ […]-CELLS IN SEVERE COVID-19 AS MEDIATED BY INTERLEUKIN 12 (IL-12)” (priority 2022, published 2026).
“Also recorded” adds a separate entry of the source.

What was measured:
COVID-19 = settings: reference 50; cited from earlier work
IL-12 production = settings: reference 51; cited from earlier work
IL12p40 = IL12p40 (Homo sapiens, UniProt P29460); assay type: cell-based; settings: severe sera, 6 days, FIG. 9D
TCF-1 = settings: reference 67; transcriptional level, by inhibiting DNA methyltransferases; cited from earlier work

IL12p40, sequence (P29460 23-328): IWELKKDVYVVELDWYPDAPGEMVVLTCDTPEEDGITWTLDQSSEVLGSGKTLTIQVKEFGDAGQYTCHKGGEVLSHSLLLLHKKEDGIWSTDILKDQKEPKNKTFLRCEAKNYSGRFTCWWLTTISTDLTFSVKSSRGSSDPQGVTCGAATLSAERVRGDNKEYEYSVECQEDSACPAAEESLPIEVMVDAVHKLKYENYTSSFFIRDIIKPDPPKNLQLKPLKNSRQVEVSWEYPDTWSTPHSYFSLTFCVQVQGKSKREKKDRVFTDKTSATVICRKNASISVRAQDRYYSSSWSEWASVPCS
IL12p40, sequence (P29459 23-219, further chain): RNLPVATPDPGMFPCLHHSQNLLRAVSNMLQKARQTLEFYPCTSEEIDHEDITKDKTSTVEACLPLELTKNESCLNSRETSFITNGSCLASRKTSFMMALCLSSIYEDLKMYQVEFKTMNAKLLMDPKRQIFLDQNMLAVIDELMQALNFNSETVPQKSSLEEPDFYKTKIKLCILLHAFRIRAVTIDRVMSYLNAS

Molecule | Success in treating COVID-19 patients (COVID-19) | IL-12 production (IL-12 production) | TCF1 expression in naïve, TCM, TEM and TEMRA T-cell subsets (IL12p40) | TCF-1 (TCF1) expression (TCF-1)
C[C@@H]1C[C@H]2[C@@H]3CCC4=CC(=O)C=C[C@]4(C)[C@@]3(F)[C@@H](O)C[C@]2(C)[C@@]1(O)C(=O)CO [dexamethasone] | proven successful | inhibits IL-12 production | – | –
IL-12: proinflammatory cytokine interleukin 12 | – | – | restored | down-regulate TCF-1 at the transcriptional level; also recorded: downregulate TCF1
